{"source": "patent US20030224416A1", "about": "“Schizophrenia related gene” (priority 2002, published 2003)", "key": {"[1]": {"tested_on": "Kv3.3 mRNA", "test": "Experiment 2: in situ hybridisation of Kv3.3 mRNA in rat brain after chronic intermittent PCP (YRING model)", "format": "in vivo", "experimental": "(§1) In a second experiment using different method for in situ hybridisation, the effect of chronic PCP treatment on Kv3.1, Kv3.2 and Kv3.3 mRNA were examined. […] Animals were treated according to the YRING model (FIG. 1) and killed by cervical dislocation 72 hours after the last exposure to PCP. The brains were stored at −70° C. until required.\n(§2) 20 μm coronal sections were cut on a cryostat at −20° C. and collected onto poly-L-lysine coated slides. The sections were fixed, dehydrated and stored under ethanol at 4° C. until required. […] On the day of in situ hybridization, the sections from the chronic study were allowed to dry at room temperature then hybridized with the appropriate probe overnight at 42° C. The sections were then washed, dehydrated and air-dried before being exposed to x-ray film for 7-10 days.\n(§3) The quantification of mRNA expression was carried out using computer-based densitometry (MCID 5). Bilateral relative optical density measurements were taken from duplicate sections from each animal (n=8-10 per treatment group for the chronic study). The results were analyzed using individual t-tests for each brain region. Statistical significance was defined as p<0.05, again after correction for multiple comparisons using the sequential Bonferroni correction factor."}, "[2]": {"tested_on": "Kv3.2 mRNA", "test": "Experiment 2: in situ hybridisation of Kv3.2 mRNA in rat brain after chronic intermittent PCP (YRING model)", "format": "in vivo", "experimental": "as §1, §2, §3"}, "[3]": {"tested_on": "Kv3.1 α-subunit mRNA", "test": "Experiment 1: in situ hybridization of Kv3.1 α-subunit mRNA in brain, chronic PCP rat model of schizophrenia with antipsychotic co-treatment", "format": "in vivo", "settings": "for Kv3.1 α-subunit mRNA expression: PCP-Veh (PCP 2.24 mg/kg i.p.)"}, "[4]": {"tested_on": "Kv3.1 mRNA", "test": "Experiment 2: in situ hybridisation of Kv3.1 mRNA in rat brain after chronic intermittent PCP (YRING model)", "format": "in vivo", "experimental": "as §1, §2, §3"}, "[5]": {"tested_on": "schizophrenia", "settings": "patients; cited from earlier work"}, "[6]": {"settings": "ventral part of the reticular thalamic nucleus"}}}
{"smiles": "c1ccc(C2(N3CCCCC3)CCCCC2)cc1", "note": "[PCP, phencyclidine]", "values": [{"measurement": "change in Kv3.3 mRNA expression after chronic intermittent PCP", "setting": "[1]; anterodorsal thalamic nucleus", "value": "+21%"}, {"measurement": "change in Kv3.3 mRNA expression after chronic intermittent PCP", "setting": "[1]; prelimbic cortex", "value": "+18%"}, {"measurement": "Kv3.3 mRNA expression change after chronic intermittent PCP", "setting": "[1]; regions other than prelimbic, ventral orbital cortex, AD, vRt", "value": "No other changes were observed in any other regions"}, {"measurement": "change in Kv3.3 mRNA expression after chronic intermittent PCP", "setting": "[1]; ventral orbital cortex", "value": "+14%"}, {"measurement": "change in Kv3.3 mRNA expression after chronic intermittent PCP", "setting": "[1]; [6]", "value": "+33%"}, {"measurement": "change in Kv3.2 mRNA expression after chronic intermittent PCP", "setting": "[2]; anteromedial thalamic nucleus", "value": "−9", "unit": "%"}, {"measurement": "change in Kv3.2 mRNA expression after chronic intermittent PCP", "setting": "[2]; prelimbic cortex", "value": "+16%"}, {"measurement": "change in Kv3.2 mRNA expression after chronic intermittent PCP", "setting": "[2]; primary motor cortex", "value": "+13%"}, {"measurement": "Kv3.2 mRNA expression change after chronic intermittent PCP", "setting": "[2]; regions other than prelimbic cortex, primary motor cortex, anteromedial thalamic nucleus", "value": "No significant changes were observed"}, {"measurement": "Kv3.1 α-subunit mRNA expression", "setting": "[3]; ACg", "value": 15.01, "unit": "PSL/mm^2"}, {"measurement": "Kv3.1 α-subunit mRNA expression", "setting": "[3]; AcbC", "value": 8.48, "unit": "PSL/mm^2"}, {"measurement": "Kv3.1 α-subunit mRNA expression", "setting": "[3]; AcbS", "value": 10.62, "unit": "PSL/mm^2"}, {"measurement": "Kv3.1 α-subunit mRNA expression", "setting": "[3]; Au1", "value": 18.08, "unit": "PSL/mm^2"}, {"measurement": "Kv3.1 α-subunit mRNA expression", "setting": "[3]; CA1pd", "value": 15.90, "unit": "PSL/mm^2"}, {"measurement": "Kv3.1 α-subunit mRNA expression", "setting": "[3]; CA2pd", "value": 18.61, "unit": "PSL/mm^2"}, {"measurement": "Kv3.1 α-subunit mRNA expression", "setting": "[3]; CA3pd", "value": 32.94, "unit": "PSL/mm^2"}, {"measurement": "Kv3.1 α-subunit mRNA expression", "setting": "[3]; DGgd", "value": 38.63, "unit": "PSL/mm^2"}, {"measurement": "Kv3.1 α-subunit mRNA expression", "setting": "[3]; DLStr", "value": 5.87, "unit": "PSL/mm^2"}, {"measurement": "Kv3.1 α-subunit mRNA expression", "setting": "[3]; IL", "value": 12.28, "unit": "PSL/mm^2"}, {"measurement": "Kv3.1 α-subunit mRNA expression", "setting": "[3]; IO", "value": 16.48, "unit": "PSL/mm^2"}, {"measurement": "Kv3.1 α-subunit mRNA expression", "setting": "[3]; M1", "value": 15.88, "unit": "PSL/mm^2"}, {"measurement": "Kv3.1 α-subunit mRNA expression", "setting": "[3]; M2", "value": 14.38, "unit": "PSL/mm^2"}, {"measurement": "Kv3.1 α-subunit mRNA expression", "setting": "[3]; MG", "value": 26.93, "unit": "PSL/mm^2"}, {"measurement": "Kv3.1 α-subunit mRNA expression", "setting": "[3]; MM", "value": 24.34, "unit": "PSL/mm^2"}, {"measurement": "Kv3.1 α-subunit mRNA expression", "setting": "[3]; Pir", "value": 40.65, "unit": "PSL/mm^2"}, {"measurement": "Kv3.1 α-subunit mRNA expression", "setting": "[3]; PrL", "value": 9.83, "unit": "PSL/mm^2"}, {"measurement": "Kv3.1 α-subunit mRNA expression", "setting": "[3]; RSa", "value": 17.96, "unit": "PSL/mm^2"}, {"measurement": "Kv3.1 α-subunit mRNA expression", "setting": "[3]; RSg", "value": 20.38, "unit": "PSL/mm^2"}, {"measurement": "Kv3.1 α-subunit mRNA expression", "setting": "[3]; SN", "value": 12.82, "unit": "PSL/mm^2"}, {"measurement": "Kv3.1 α-subunit mRNA expression", "setting": "[3]; VMStr", "value": 6.15, "unit": "PSL/mm^2"}, {"measurement": "Kv3.1 α-subunit mRNA expression", "setting": "[3]; VO", "value": 19.85, "unit": "PSL/mm^2"}, {"measurement": "Kv3.1 α-subunit mRNA expression", "setting": "[3]; dRt", "value": 48.80, "unit": "PSL/mm^2"}, {"measurement": "change in Kv3.1 α-subunit mRNA expression after chronic PCP treatment", "setting": "[3]; dorsal part of the reticular nucleus of the thalamus (dRt)", "value": "−15", "unit": "%"}, {"measurement": "change in Kv3.1 α-subunit mRNA expression after chronic PCP treatment", "setting": "[3]; dorsolateral striatum (DLStr)", "value": "−16", "unit": "%"}, {"measurement": "change in Kv3.1 α-subunit mRNA expression after chronic PCP treatment", "setting": "[3]; prelimbic region of the prefrontal cortex (PrL)", "value": "−31", "unit": "%"}, {"measurement": "Kv3.1 α-subunit mRNA expression", "setting": "[3]; vRt", "value": 45.07, "unit": "PSL/mm^2"}, {"measurement": "change in Kv3.1 mRNA expression after chronic intermittent PCP", "setting": "[4]; prelimbic cortex", "value": "−23", "unit": "%"}, {"measurement": "Kv3.1 mRNA expression change after chronic intermittent PCP", "setting": "[4]; regions other than prelimbic cortex and vRt", "value": "No other changes were observed in any other regions"}, {"measurement": "change in Kv3.1 mRNA expression after chronic intermittent PCP", "setting": "[4]; [6]", "value": "−19", "unit": "%"}]}
{"smiles": "O=C(CCCN1CCC(O)(c2ccc(Cl)cc2)CC1)c1ccc(F)cc1", "note": "[haloperidol]", "values": [{"measurement": "action against the negative symptoms and cognitive dysfunction of schizophrenia", "setting": "[5]", "value": "ineffective"}, {"measurement": "attenuating the positive symptoms of schizophrenia", "setting": "[5]", "value": "effective"}]}
